Results as given in patent publication US20120302584A1, “NOVEL SALTS FORMS OF PYRIMIDIN-5-YL ACETIC ACID DERIVATIVE” (BOEHRINGER INGELHEIM INTERNATIONAL GMBH, priority 2009, published 2012).
Values after ≈ are worked out from the molar mass of the structure shown. Structures can show the parent of a compound that is named as a salt.

How the values were obtained:
[1] = Kinetic solubility in sodium dodecyl sulfate solution at pH 6.8 and 37° C.; format: physicochemical; details: for maximum solubility (kinetic solubility): pH 6.8, 0.2% sodium dodecyl sulfate (SDS) solution, after about 5 minutes
Procedure: FIG. 7 also depicts comparative kinetic solubility for the acid-free form of the compound of formula (I)(♦), a choline salt of the compound of formula (I)( ? ), and an ethylenediamine salt of the compound of formula (I) (▴).
After 60 minutes, the solubilities ranged from about 150 μg/mL (for the ethylenediamine salt of the compound of formula (I)) to about 245 μg/mL (for the choline salt of the compound of formula (I)).

[2] = Dynamic vapor sorption (water sorption/desorption); format: physicochemical; details: 25° C.; for hygroscopicity (in words): conditions used in this analysis
Procedure: Vapor sorption/desorption was carried out using Surface Measurement Systems DVS-HT. Samples were placed into a foil insert placed on a sample pan. […] The equilibrium point of each step was reached when 0.002% of weight change was reached.

[3] = pH 6.8, 0.2% SDS solution, after 60 minutes

solubility after 60 minutes (kinetic solubility) [1, 3] | maximum solubility (kinetic solubility) [1] | hygroscopicity (in words) [2] | moisture gain through 85% relative humidity [2] | Structure (SMILES) | other results
essentially unchanged | about 50 μg/mL |  |  | CN(C)c1nc(Cc2ccc(NC(=O)c3ccc(C(F)(F)F)cc3)cc2)nc(N(C)C)c1CC(=O)O [free acid form of the compound of formula (I)] [[4,6-bis(dimethylamino)-2-(4-{[4-(trifluoromethyl)benzoyl]amino}benzyl)pyrimidin-5-yl] acetic acid] | 
 | about 1010 μg/mL | hygroscopic | about 17% | CN(C)c1nc(Cc2ccc(NC(=O)c3ccc(C(F)(F)F)cc3)cc2)nc(N(C)C)c1CC(=O)O [sodium salt of the invention, [4,6-bis(dimethylamino)-2-(4-{[4-(trifluoromethyl)benzoyl]amino}benzyl)pyrimidin-5-yl] acetic acid] | moisture gain through 55% relative humidity ([2]; 55% relative humidity): less than 2%
about 150 μg/mL |  |  |  | CN(C)c1nc(Cc2ccc(NC(=O)c3ccc(C(F)(F)F)cc3)cc2)nc(N(C)C)c1CC(=O)O [ethylenediamine salt of the compound of formula (I)] [[4,6-bis(dimethylamino)-2-(4-{[4-(trifluoromethyl)benzoyl]amino}benzyl)pyrimidin-5-yl] acetic acid, reference compound] | maximum solubility (kinetic solubility) ([1]; listed as ethylenediame salt of the compound of formula (I)): about 670 μg/mL

The remaining lines, values behind:

Structure (SMILES) | solubility after 60 minutes (kinetic solubility) [1, 3] | maximum solubility (kinetic solubility) [1] | hygroscopicity (in words) [2] | moisture gain through 85% relative humidity [2] | other results
CN(C)c1nc(Cc2ccc(NC(=O)c3ccc(C(F)(F)F)cc3)cc2)nc(N(C)C)c1CC(=O)O [N-methyl-D-glucamine salt of the invention] [[4,6-bis(dimethylamino)-2-(4-{[4-(trifluoromethyl)benzoyl]amino}benzyl)pyrimidin-5-yl] acetic acid] |  | about 910 μg/mL | mild hygroscopicity | about 3.7% | 
CN(C)c1nc(Cc2ccc(NC(=O)c3ccc(C(F)(F)F)cc3)cc2)nc(N(C)C)c1CC(=O)O [[4,6-bis(dimethylamino)-2-(4-{[4-(trifluoromethyl)benzoyl]amino}benzyl)pyrimidin-5-yl] acetic acid, reference compound] |  |  |  |  | solubility kinetic at 60 min ([1]; 0.2% sodium dodecyl sulfate (SDS) solution, 37 °C, pH 6.8, aqueous with cosolvent or surfactant or cyclodextrin, pH 6.8, 0.2% SDS solution, after 60 minutes): ~245 µg/mL (≈ 489 µM)
CN(C)c1nc(Cc2ccc(NC(=O)c3ccc(C(F)(F)F)cc3)cc2)nc(N(C)C)c1CC(=O)O [choline salt of the compound of formula (I)] [[4,6-bis(dimethylamino)-2-(4-{[4-(trifluoromethyl)benzoyl]amino}benzyl)pyrimidin-5-yl] acetic acid, reference compound] |  | about 960 μg/mL |  |  | 
